# Data reported in patent US5840740A, “Aminosterol compounds and a method of treating infection using the aminosterol compounds” (priority 1995, dated 1998).
# Entries after “also recorded” stand apart in the source; their conditions may differ.
# What was measured:
# melanoma 1205Lu = assay: Human melanoma growth in immunocompromised RAG-1 mice; type: in vivo, human tumor in RAG-1 mice; conditions: 10, 20, 40 mg/kg/d (FIG. 5)
# Description: As apparent from FIG. 5, melanoma 1205Lu develops aggressively in RAG-1 mice after implantation.
# [1] = test system: PHA-stimulated human lymphocytes; assay: Inhibition of mitogen (PHA)-stimulated growth of human T-cells; type: cell-based; conditions: in words; 10 μg/ml
# Description: Results are tabulated below.
# human NHE1 = assay: pH recovery in PS120 fibroblasts transfected with human NHE1; type: cell-based; conditions: 5 μg/ml; acid-preloaded
# Experimental: (§1) PS120 fibroblasts transfected with rabbit or human NHE1 were grown as described above.
# B16 melanoma = B16 melanoma growth in C57B mice; type: in vivo, mouse
# Experimental: The growth of B16 melanoma in C57B mice is dependent upon neovascularization.
# Using the growth of B16 melanoma cells in C57B mice, a recognized model for the evaluation of inhibitors of angiogenesis on the growth of cancers, the effects of subcutaneous, intraperitoneal and oral administration of squalamine were evaluated.
# In this model, there was observed little evidence of metastasis with or without treatment with chemotherapeutic agents.
# Based on the idea that tumor growth involves both the clonal expansion of a malignant cell along with the development of a supporting vascular supply, a combination of compound 1436 with squalamine was tested to determine whether it would achieve a synergistic effect on solid tumor growth. This concept was evaluated in the B16 melanoma model.
# Animals were implanted with B16 melanoma followed by treatment with compound 1436 or 1256 administered in a combined schedule or separately. […] Thus, a combination of these two compounds achieves a therapeutic benefit in tumors dependent on neovascularization that may prevent metastatic spread.
# [2] = test system: bovine pulmonary endothelial cells; assay: Growth inhibition of endothelial cells in vitro; type: cell-based; conditions: 1 μg/ml; absorbance at 600 nm
# [3] = test system: human foreskin fibroblasts; assay: Growth inhibition of fibroblasts in vitro; type: cell-based; conditions: 10 μg/ml; absorbance at 600 nm
# [4] = test system: human microvascular cells; assay: Inhibition of endothelial cell cord formation in vitro; type: cell-based; conditions: at cord formation-inhibiting concentrations
# Description: Endothelial cells have the capacity in vitro to form tubular aggregates resembling capillaries in various early stages of formation. This conversion occurs under relatively specific conditions, in which essential growth factors along with an effective substratum are provided. It has been shown that both the interaction of growth factors with the endothelial cell and its attachment to a substratum activate the NHE. The activation of this exchanger is believed to be required for subsequent morphologic transformation of the endothelial cell into a multicellular tubular structure.
# To assess the effect of compounds on the cord-like structures formed by human microvascular cells when plated in the presence of VEFG (Vascular Endothelial Growth Factor) and basic fibroblast growth factor on a collagen matrix, a standard cord formation assay was used.
# [5] = test system: chick embryo vitelline capillaries; assay: Chick embryo vitelline capillary regression assay; type: in vivo; design: key to vascular reactivity (capillary regression): +: Vascular reactivity; 0: No vascular reactivity; +/-: Equivocal reactivity; conditions: for vascular reactivity (capillary regression): 60 min
# Outline: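 Each compound was applied onto 3-day chick embryos in 0.1 ml 15% Ficol 400 in PBS. Regression of vitelline capillaries was scored visually after 60 minutes.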
# [6] = Fasting blood glucose in mice; type: in vivo, mouse (male CD-1); conditions: 2 x 10 mg/kg i.v. (total 20 mg/kg), 30 min after 2d dose; in H2O (1437, 1256) or D5W (1436)
# Experimental: To study the effect of steroid administrator or the NHE responsible for secretion of insulin, several of the aminosterols from shark liver were administered to fasting mice. Male CD-1 mice were assigned to one of four treatment groups. Whole blood glucose was tested using glucometer (Lifescan Glucometer II and One Touch test strips). Statistical analysis was via one-way analysis of variance (ANOVA) followed by subsequent Bonferonni's t-test.
# [7] = test system: human epithelial cell line MCF 10A; assay: Growth inhibition of epithelial cells in vitro; type: cell-based; conditions: 10 μg/ml; absorbance at 600 nm
# rabbit NHE1 = assay: pH recovery in PS120 fibroblasts transfected with rabbit NHE1; type: cell-based; conditions: 5 μg/ml; acid-preloaded
# Experimental: as §1
# Xenopus tadpole = conditions: stage 59-60, 10 μg/ml
# [8] = test system: human coronary artery smooth muscle; assay: Proliferation of human coronary artery smooth muscle in vitro; type: cell-based; conditions: in words (1436: about 11 μg/ml)
# Description: Aminosterols of the invention may also have utility in inhibiting the growth factor mediated proliferation of smooth muscle within the artery. Following coronary angioplasty, reocclusion commonly occurs, secondary to reparative proliferation of the vascular smooth muscle within the wall of the surgically manipulated blood vessel. This process generally takes place over the course of 7-10 days. To evaluate whether an agent could prevent the growth factor mediated proliferation of smooth muscle within the artery, compound 1436 was evaluated in vitro for its effect on the proliferation of human coronary artery smooth muscle. Results for compound 1436 are shown in FIG. 13, and those for squalamine are shown in FIG. 14, with FIG. 15 being a composite logarithmic plot.
# rabbit NHE3 = rabbit NHE3 (Oryctolagus cuniculus, UniProt P26432); conditions: 5 μg/ml squalamine; cells not acid-preloaded
# Sequence of rabbit NHE3 (P26432 30-832): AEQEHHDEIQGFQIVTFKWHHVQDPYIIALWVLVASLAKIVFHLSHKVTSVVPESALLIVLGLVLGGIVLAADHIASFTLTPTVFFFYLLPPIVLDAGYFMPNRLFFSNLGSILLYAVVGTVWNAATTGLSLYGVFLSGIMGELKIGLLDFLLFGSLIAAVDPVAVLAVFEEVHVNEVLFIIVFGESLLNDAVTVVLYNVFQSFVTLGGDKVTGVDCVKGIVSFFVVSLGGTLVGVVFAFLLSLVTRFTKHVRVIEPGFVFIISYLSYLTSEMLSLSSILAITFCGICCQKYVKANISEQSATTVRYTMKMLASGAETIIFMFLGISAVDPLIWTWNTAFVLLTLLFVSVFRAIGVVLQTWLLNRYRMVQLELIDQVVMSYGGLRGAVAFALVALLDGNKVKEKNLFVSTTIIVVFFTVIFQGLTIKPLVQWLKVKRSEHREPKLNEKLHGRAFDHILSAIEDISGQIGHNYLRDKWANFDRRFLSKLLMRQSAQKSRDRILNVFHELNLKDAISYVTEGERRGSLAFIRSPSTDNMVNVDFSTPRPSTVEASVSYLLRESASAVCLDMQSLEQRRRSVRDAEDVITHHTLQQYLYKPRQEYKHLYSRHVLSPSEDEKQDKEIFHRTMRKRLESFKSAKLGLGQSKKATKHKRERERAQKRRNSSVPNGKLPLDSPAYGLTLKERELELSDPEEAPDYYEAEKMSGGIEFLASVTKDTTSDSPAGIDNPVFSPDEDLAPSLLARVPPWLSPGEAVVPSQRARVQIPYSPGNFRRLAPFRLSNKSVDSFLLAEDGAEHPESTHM
# Experimental: For cells not acid-preloaded, the actual internal pH value was monitored as a function of time following addition of squalamine, with the results depicted in FIG. 1B.
# PS120 fibroblasts transfected with rabbit NHE3 were grown and acid preloaded by exposure to 40 mM NH4 C1 as described above in conjunction with FIGS. 1A and 1B. Internal cellular pH changes expressed as the rate of pH recovery as a function of restored extracellular sodium ion concentration following exposure to 10 μg/ml of the compound were assayed with the fluorescent dye BCECF-AM as described above.
# B16 = assay: Cytostatic activity against B16 in culture; type: cell-based, murine
# [9] = test system: human umbilical venous endothelial cells; assay: LPS-induced neutrophil adherence to endothelial cells; conditions: squalamine 10, 1.0 or 0.1 μg; three subjects
# Experimental: To determine if squalamine inhibited this particular endothelial cell function, standard adhesion assays were performed as outlined in Gamble et al., J. Imm. […] In these experiments, approximately 2×10^5 human umbilical venous cells (passage 2-6) were plated per well. The cells were grown in serum-free media overnight. For induction, either TNF-α (40 ng/ml) was added to endothelial cells for 6 hours prior to adding neutrophils or LPS (100 ng/ml) was added for 4-6 hours. […] After activation of the endothelial cells, approximately 50×10^6 neutrophils were added per well. The plates were gently rocked for 30 minutes at room temperature, followed by removal of the media and washing in serum-free media three times and then photographing of each well. Experiments to test the effects of squalamine were performed by adding squalamine at 10 μg, 1.0 μg, or 0.1 μg at the time of adding LPS or TNF-α. A second repeat dose of squalamine was added at the time of adding neutrophils. A monoclonal Ab to ICAM-1 was a positive control.
# chorioallantoic membrane = assay: Chorioallantoic membrane (CAM) model; type: in vivo, chick; conditions: for Percentage positive, Assay 1 / Percentage positive, Assay 2: 3-day embryo, some vascular irritation noted
# Description: The growing capillaries within the chorioallantoic membrane model (CAM model) have been used as a system in which to evaluate the effect of agents on their potential to inhibit new vessel growth. Neovascularization occurs most aggressively over the first week of embryonic development. Thereafter capillary growth is characterized by principally "elongation" rather than "de novo" formation.
# In the standard assay, agents are applied locally to a region of the embryo over which neovascularization will occur. Agents are assessed by their ability to inhibit this process, as evaluated by visual examination about 7 days after application. […] The assay utilized is described in detail in Auerbach et al., Pharm. Ther. 51, 1991, 1-11.
# [10] = test system: bacteria, fungi and protozoa; conditions: background; cited from earlier work
compound,measurement,setting,value
"CC(C)[C@@H](CC[C@@H](C)[C@H]1CC[C@H]2[C@@H]3[C@H](O)C[C@H]4C[C@@H](NCCCNCCCCN)CC[C@]4(C)[C@H]3CC[C@]12C)OS(=O)(=O)O [Squalamine, squalamine]",suppression of human melanoma growth,melanoma 1205Lu,suppress the growth of melanoma 1205Lu in RAG-1 mice in a dose-dependent fashion; also recorded: clear suppression of tumor growth in a dose-dependent fashion
same,suppression of human melanoma growth,melanoma 1205Lu; listed as squalamine,"After cessation of treatment, tumor growth continued at a rate similar to untreated controls"
same,inhibition of blast transformation,[1],Some effect
same,inhibition of human NHE1,human NHE1,no inhibitory activity; also recorded: lack of inhibition of human NHE1
same,body weight and hematologic parameters,"B16 melanoma; s.c., i.p. or oral squalamine",no significant depression
same,"effect on B16 tumor volume, single agent and combination","B16 melanoma; squalamine 5 mg/kg/day, compound 1436 10 mg/kg/every 3 days",no significant impact on tumor volume
same,suppression of B16 melanoma tumor growth,"B16 melanoma; squalamine subcutaneous, intraperitoneal, oral",a dose-dependent suppression of tumor volume; also recorded: suppression of the growth of murine melanoma
same,growth inhibition,[2],inhibited the growth
same,growth inhibition,[3],no effect
same,effect on cell viability or proliferation,[4],does not appear to profoundly affect cell viability or proliferation
same,vascular reactivity (capillary regression),[5]; 0.001 μg applied,0
same,vascular reactivity (capillary regression),[5]; 0.01 μg applied,+
same,vascular reactivity (capillary regression),[5]; 0.1 μg applied,+
same,vascular reactivity (capillary regression),[5]; 1 μg applied,+
same,vascular reactivity (capillary regression),[5]; 10 μg applied,+
same,effect on chick embryo vessels / blood,[5]; in words,disrupt vitelline capillaries in 3- to 5-day chick embryos
same,effect on chick embryo vessels / blood,"[5]; in words, listed as squalamine",especially active
same,hemorrhage / hemolysis / heartbeat in chick embryo,"[5]; in words, listed as squalamine",No hemorrhage was seen; also recorded: absence of hemolysis; also recorded: The embryonic heart continued to beat vigorously
same,Fasting Blood Glucose Mean ± SEM,[6],65 ± 7.3 mg/dL
same,growth inhibition,[7],no effect
same,inhibition of rabbit NHE1,rabbit NHE1,no inhibitory activity; also recorded: lack of inhibition of rabbit sodium/proton exchanger isoform 1 (NHE1)
same,time to death,Xenopus tadpole,≤ 2 h
same,pharmacological response in tadpole,"Xenopus tadpole; in words, listed as Compound 1256 (Squalamine)",Vascular occlusion in fine capillaries of tail. No effect on vascular flow through hands or feet.
same,growth suppression / viability of smooth muscle cells,[8],suppress in vitro the growth of human coronary artery smooth muscle
same,resting internal pH,rabbit NHE3,the resting pH of these cells was also inhibited
same,cytostatic activity against B16,B16,"minimal cytostatic activity against B16 in culture, except at very high concentrations"
same,inhibition of neutrophil adherence,[9],no inhibition
same,"Percentage positive, Assay 1",chorioallantoic membrane; 20 μg applied,52 Percentage
same,"Percentage positive, Assay 2",chorioallantoic membrane; 20 μg applied,58 Percentage
same,"Percentage positive, Assay 1",chorioallantoic membrane; 40 μg applied,50 Percentage
same,"Percentage positive, Assay 2",chorioallantoic membrane; 40 μg applied,13 Percentage
same,Percentage positive,"chorioallantoic membrane; 13-day embryo, 5.0 μg applied, positive/total",0/26
same,antibiotic spectrum,[10],"broad-spectrum antibiotic, killing bacteria, fungi and protozoa"
